Values of other authors, collected in patent US6348193B1, “Method for inhibiting pathogenic fungi and bacteria in plants using Pseudomonas aureofaciens” (Board of Trustees of Michigan State University, priority 1999, dated 2002).

Experiments:
G. graminis var. tritici = details: in the soil atmosphere
Magnaporthe poae = details: in vivo

## C=C [Ethylene, ethylene]
G. graminis var. tritici
  Concentration inhibitory to G. graminis var. tritici: less than 5 parts-per-million

## faeriefungin
Magnaporthe poae
  Management of summer patch disease of turfgrass: equal to that of the chemical fungicide fenarimol
